Here are results for one substance from patent US20220009976A1, “Peptide Possessing Mesenchymal-Stem-Cell Mobilizing Activity” (StemRIM Inc., priority 2018, published 2022).

For the test, the system named is mesenchymal stem cells. The test can be described thus: Solid-phase culture of peripheral blood after administration of HMGB1 peptide 1-44 (earlier experiments of the inventors). It counts as in vivo. The following applies: vs peripheral blood after administration of physiological saline. An excerpt: In addition, the colonies obtained as a result of culturing, on a solid phase, peripheral blood after administration of a peptide consisting of amino acid residues 1-44 of the human HMGB1 protein (hereinafter, HMGB1 peptide 1-44), which has an activity of mobilizing mesenchymal stem cells into peripheral blood, have been confirmed to have adherability to solid phase and self-renewal ability, and to be PDGFRα positive. They have also been confirmed to have a gene expression profile characteristic to mesenchymal stem cells, based on the results of clustering the transcriptome analysis data and performing gene ontology analysis.
Furthermore, it has been confirmed that the number of colonies obtained by solid-phase culture is larger in the peripheral blood after administration of HMGB1 peptide 1-44 than in the peripheral blood after administration of physiological saline.
Therefore, the colonies obtained as a result of culturing peripheral blood on a solid phase are mesenchymal stem cells, and it is considered that an increase in the number of colonies detected in a solid phase culture of peripheral blood indicates an increase in the number of mesenchymal stem cells in the peripheral blood.

Take “HMGB1 peptide 1-44: peptide consisting of amino acid residues 1-44 of the human HMGB1 protein, which has an activity of mobilizing mesenchymal stem cells into peripheral blood (MGKGDPKKPRGKMSSYAFFVQTCREEHKKKHPDASVNFSEFSKK; UniProt P09429 1-44, looked up, fragment)”: the “number of colonies obtained by solid-phase culture of peripheral blood” value is “larger”.
